Read-outs that look alike come from different tables or passages of the source.
Tested on: B9 cells

SMILES: CCCS(=O)(=O)Nc1ccc(F)c(C(=O)c2c[nH]c3ncc(-c4ccc(Cl)cc4)cc23)c1F [vemurafenib]
- probe 1416811_s_at response, Ctla2a /// Ctla2b (cytotoxic T lymphocyte-associated protein 2 alpha /// cytotoxic T lymphocyte-associated protein 2 beta): 1.92
- probe 1452352_at response, Ctla2b (cytotoxic T lymphocyte-associated protein 2 beta): 2.37
- expression of gene probe 1416454_s_at (Acta2) (B9 cells, Repl. 1): 0.23
- expression of gene probe 1416612_at (Cyp1b1) (B9 cells, Repl. 1): 0.19
- expression of gene probe 1418240_at (Gbp2) (B9 cells, Repl. 1): 0.30
- expression of gene probe 1418497_at (Fgf13) (B9 cells, Repl. 1): 0.39
- expression of gene probe 1419089_at (Timp3) (B9 cells, Repl. 1): 0.26
- expression of gene probe 1427183_at (Efemp1) (B9 cells, Repl. 1): 0.30
- expression of gene probe 1427747_a_at (Lcn2) (B9 cells, Repl. 1): 0.36
- expression of gene probe 1435906_x_at (Gbp2) (B9 cells, Repl. 1): 0.21
- expression of gene probe 1438931_s_at (LOC100047324 /// Sesn1) (B9 cells, Repl. 1): 0.35
- expression of gene probe 1438988_x_at (Hn1) (B9 cells, Repl. 1): 0.26
- expression of gene probe 1440147_at (Lgi2) (B9 cells, Repl. 1): 0.34
- expression of gene probe 1448734_at (Cp) (B9 cells, Repl. 1): 0.31
- expression of gene probe 1449227_at (Ch25h) (B9 cells, Repl. 1): 0.25
- expression of gene probe 1449335_at (Timp3) (B9 cells, Repl. 1): 0.24
- expression of gene probe 1449340_at (Sostdc1) (B9 cells, Repl. 1): 0.17
- expression of gene probe 1449815_a_at (Ssbp2) (B9 cells, Repl. 1): 0.38
- expression of gene probe 1450618_a_at (Sprr2a) (B9 cells, Repl. 1): 0.36
- expression of gene probe 1460250_at (Sostdc1) (B9 cells, Repl. 1): 0.23
- expression of gene probe 1416454_s_at (Acta2) (B9 cells, Repl. 2): 0.20
- expression of gene probe 1416612_at (Cyp1b1) (B9 cells, Repl. 2): 0.16
- expression of gene probe 1418240_at (Gbp2) (B9 cells, Repl. 2): 0.28
- expression of gene probe 1418497_at (Fgf13) (B9 cells, Repl. 2): 0.38
- expression of gene probe 1419089_at (Timp3) (B9 cells, Repl. 2): 0.31
- expression of gene probe 1427183_at (Efemp1) (B9 cells, Repl. 2): 0.37
- expression of gene probe 1427747_a_at (Lcn2) (B9 cells, Repl. 2): 0.35
- expression of gene probe 1435906_x_at (Gbp2) (B9 cells, Repl. 2): 0.30
- expression of gene probe 1438931_s_at (LOC100047324 /// Sesn1) (B9 cells, Repl. 2): 0.33
- expression of gene probe 1438988_x_at (Hn1) (B9 cells, Repl. 2): 0.27
- expression of gene probe 1440147_at (Lgi2) (B9 cells, Repl. 2): 0.38
- expression of gene probe 1448734_at (Cp) (B9 cells, Repl. 2): 0.30
- expression of gene probe 1449227_at (Ch25h) (B9 cells, Repl. 2): 0.29
- expression of gene probe 1449335_at (Timp3) (B9 cells, Repl. 2): 0.36
- expression of gene probe 1449340_at (Sostdc1) (B9 cells, Repl. 2): 0.20
- expression of gene probe 1449815_a_at (Ssbp2) (B9 cells, Repl. 2): 0.38
- expression of gene probe 1450618_a_at (Sprr2a) (B9 cells, Repl. 2): 0.41
- expression of gene probe 1460250_at (Sostdc1) (B9 cells, Repl. 2): 0.20
- probe 1415828_a_at response, Serp1 (stress-associated endoplasmic reticulum protein 1) (Repl. 1, B9 cells): 2.05
- probe 1415936_at response, Bcar3 (breast cancer anti-estrogen resistance 3) (Repl. 1, B9 cells): 2.21
- probe 1416129_at response, Errfi1 (ERBB receptor feedback inhibitor 1) (Repl. 1, B9 cells): 3.31
- probe 1416246_a_at response, Coro1a (coronin, actin binding protein 1A) (Repl. 1, B9 cells): 1.90
- probe 1416325_at response, Crisp 1 (cysteine-rich secretory protein 1) (Repl. 1, B9 cells): 5.15
- probe 1416401_at response, Cd82 (CD82 antigen) (Repl. 1, B9 cells): 2.87
- probe 1416488_at response, Ccng2 (cyclin G2) (Repl. 1, B9 cells): 2.23
- probe 1416527_at response, Rab32 (RAB32, member RAS oncogene family) (Repl. 1, B9 cells): 0.42
- probe 1416811_s_at response, Ctla2a /// Ctla2b (cytotoxic T lymphocyte-associated protein 2 alpha /// cytotoxic T lymphocyte-associated protein 2 beta) (Repl. 1, B9 cells): 2.28
- probe 1417065_at response, Egr1 (early growth response 1) (Repl. 1, B9 cells): 4.13
- probe 1417130_s_at response, Angptl4 (angiopoietin-like 4) (Repl. 1, B9 cells): 3.10
- probe 1417328_at response, Ercc1 (excision repair cross-complementing rodent repair deficiency, complementation group 1) (Repl. 1, B9 cells): 2.20
- probe 1417488_at response, Fosl1 (fos-like antigen 1) (Repl. 1, B9 cells): 2.09
- probe 1417494_a_at response, Cp (ceruloplasmin) (Repl. 1, B9 cells): 0.39
- probe 1417495_x_at response, Cp (ceruloplasmin) (Repl. 1, B9 cells): 0.48
- probe 1417533_a_at response, Itgb5 (integrin beta 5) (Repl. 1, B9 cells): 0.50
- probe 1417625_s_at response, Cxcr7 (chemokine (C-X-C motif) receptor 7) (Repl. 1, B9 cells): 2.03
- probe 1417677_at response, Opn3 (opsin 3) (Repl. 1, B9 cells): 2.18
- probe 1417812_a_at response, Lamb3 (laminin, beta 3) (Repl. 1, B9 cells): 2.60
- probe 1417837_at response, Phlda2 (pleckstrin homology-like domain, family A, member 2) (Repl. 1, B9 cells): 2.26
- probe 1417902_at response, Slc19a2 (solute carrier family 19 (thiamine transporter), member 2) (Repl. 1, B9 cells): 2.00
- probe 1417962_s_at response, Ghr (growth hormone receptor) (Repl. 1, B9 cells): 2.19
- probe 1418349_at response, Hbegf (heparin-binding EGF-like growth factor) (Repl. 1, B9 cells): 3.29
- probe 1418350_at response, Hbegf (heparin-binding EGF-like growth factor) (Repl. 1, B9 cells): 2.66
- probe 1418538_at response, Kdelr3 (KDEL (Lys-Asp-Glu-Leu) endoplasmic reticulum protein retention receptor 3) (Repl. 1, B9 cells): 2.08
- probe 1418539_a_at response, Ptpre (protein tyrosine phosphatase, receptor type, E) (Repl. 1, B9 cells): 1.94
- probe 1419149_at response, Serpine1 (serine (or cysteine) peptidase inhibitor, clade E, member 1) (Repl. 1, B9 cells): 2.13
- probe 1419188_s_at response, Ccl27a /// Gm13306 (chemokine (C-C motif) ligand 27A /// predicted gene 13306) (Repl. 1, B9 cells): 2.62
- probe 1419317_x_at response, Lce3c (late cornified envelope 3C) (Repl. 1, B9 cells): 2.53
- probe 1419322_at response, Fgd6 (FYVE, RhoGEF and PH domain containing 6) (Repl. 1, B9 cells): 2.60
- probe 1419529_at response, Il23a (interleukin 23, alpha subunit p19) (Repl. 1, B9 cells): 2.84
- probe 1419671_a_at response, Il17rc (interleukin 17 receptor C) (Repl. 1, B9 cells): 0.49
- probe 1419722_at response, Klk8 (kallikrein related-peptidase 8) (Repl. 1, B9 cells): 2.02
- probe 1419816_s_at response, Errfi1 (ERBB receptor feedback inhibitor 1) (Repl. 1, B9 cells): 3.87
- probe 1420352_at response, Prss22 (protease, serine, 22) (Repl. 1, B9 cells): 3.07
- probe 1420380_at response, Cc12 (chemokine (C-C motif) ligand 2) (Repl. 1, B9 cells): 0.37
- probe 1420407_at response, Ltb4r1 (leukotriene B4 receptor 1) (Repl. 1, B9 cells): 2.29
- probe 1420450_at response, Mmp10 (matrix metallopeptidase 10) (Repl. 1, B9 cells): 3.42
- probe 1420537_at response, Kctd4 (potassium channel tetramerisation domain containing 4) (Repl. 1, B9 cells): 2.36
- probe 1420760_s_at response, Ndrg1 (N-myc downstream regulated gene 1) (Repl. 1, B9 cells): 1.90
- probe 1420913_at response, Slco2a1 (solute carrier organic anion transporter family, member 2a1) (Repl. 1, B9 cells): 1.92
- probe 1420955_at response, Vsnl1 (visinin-like 1) (Repl. 1, B9 cells): 0.38
- probe 1421134_at response, Areg (amphiregulin) (Repl. 1, B9 cells): 4.28
- probe 1421269_at response, Ugcg (UDP-glucose ceramide glucosyltransferase) (Repl. 1, B9 cells): 2.46
- probe 1421279_at response, Lamc2 (laminin, gamma 2) (Repl. 1, B9 cells): 2.23
- probe 1421403_at response, Pi15 (peptidase inhibitor 15) (Repl. 1, B9 cells): 2.04
- probe 1421551_s_at response, Ifi202b (interferon activated gene 202B) (Repl. 1, B9 cells): 3.58
- probe 1421668_x_at response, Speer3 (spermatogenesis associated glutamate (E)-rich protein 3) (Repl. 1, B9 cells): 2.74
- probe 1421679_a_at response, Cdkn1a (cyclin-dependent kinase inhibitor 1A (P21)) (Repl. 1, B9 cells): 4.27
- probe 1421888_x_at response, Aplp2 (amyloid beta (A4) precursor-like protein 2) (Repl. 1, B9 cells): 0.65
- probe 1421943_at response, Tgfa (transforming growth factor alpha) (Repl. 1, B9 cells): 1.93
- probe 1422028_a_at response, Ets1 (E26 avian leukemia oncogene 1, 5′ domain) (Repl. 1, B9 cells): 2.13
- probe 1422101_at response, Tnfrsf23 (tumor necrosis factor receptor superfamily, member 23) (Repl. 1, B9 cells): 2.04
- probe 1422138_at response, Plau (plasminogen activator, urokinase) (Repl. 1, B9 cells): 2.73
- probe 1422139_at response, Plau (plasminogen activator, urokinase) (Repl. 1, B9 cells): 2.45
- probe 1422222_at response, Ivl (involucrin) (Repl. 1, B9 cells): 2.50
- probe 1422240_s_at response, Sprr2h (small proline-rich protein 2H) (Repl. 1, B9 cells): 1.95
- probe 1422273_at response, Mmp1b (matrix metallopeptidase 1b (interstitial collagenase)) (Repl. 1, B9 cells): 3.30
- probe 1422324_a_at response, Pthlh (parathyroid hormone-like peptide) (Repl. 1, B9 cells): 2.11
- probe 1422537_a_at response, Id2 (inhibitor of DNA binding 2) (Repl. 1, B9 cells): 0.53
- probe 1422771_at response, Smad6 (MAD homolog 6 (Drosophila)) (Repl. 1, B9 cells): 0.46
- probe 1422924_at response, Tnfsf9 (tumor necrosis factor (ligand) superfamily, member 9) (Repl. 1, B9 cells): 2.01
- probe 1423017_a_at response, Il1rn (interleukin 1 receptor antagonist) (Repl. 1, B9 cells): 2.63
- probe 1423543_at response, Swap70 (SWA-70 protein) (Repl. 1, B9 cells): 1.88
- probe 1423597_at response, Atp8a1 (ATPase, aminophospholipid transporter (APLT), class I, type 8A, member 1) (Repl. 1, B9 cells): 2.02
- probe 1423635_at response, Bmp2 (bone morphogenetic protein 2) (Repl. 1, B9 cells): 2.41
- probe 1423690_s_at response, Gpsm1 (G-protein signalling modulator 1 (AGS3-like, C. elegans)) (Repl. 1, B9 cells): 3.37
- probe 1423933_a_at response, 1600029D21Rik (RIKEN cDNA 1600029D21 gene) (Repl. 1, B9 cells): 2.06
- probe 1424022_at response, Osgin1 (oxidative stress induced growth inhibitor 1) (Repl. 1, B9 cells): 2.27
- probe 1424090_at response, Sdcbp2 (syndecan binding protein (syntenin) 2) (Repl. 1, B9 cells): 4.08
- probe 1424306_at response, Elovl4 (elongation of very long chain fatty acids (FEN1/Elo2, SUR4/Elo3, yeast)-like 4) (Repl. 1, B9 cells): 2.51
- probe 1424383_at response, Tmem51 (transmembrane protein 51) (Repl. 1, B9 cells): 2.58
- probe 1424471_at response, Rapgef3 (Rap guanine nucleotide exchange factor (GEF) 3) (Repl. 1, B9 cells): 2.18
- probe 1424638_at response, Cdkn1a (cyclin-dependent kinase inhibitor 1A (P21)) (Repl. 1, B9 cells): 2.76
- probe 1424783_a_at response, Ugt1a1 /// Ugt1a10 /// Ugt1a2 /// Ugt1a5 /// Ugt1a6a /// Ugt1a6b /// Ugt1aTc /// Ugt1a9 (UDP glucuronosyltransferase 1 family) (Repl. 1, B9 cells): 0.39
- probe 1425452_s_at response, Fam84a (family with sequence similarity 84, member A) (Repl. 1, B9 cells): 2.41
- probe 1425660_at response, Btbd3 (BTB (POZ) domain containing 3) (Repl. 1, B9 cells): 2.08
- probe 1426037_a_at response, Rgs16 (regulator of G-protein signaling 16) (Repl. 1, B9 cells): 3.19
- probe 1426181_a_at response, I124 (interleukin 24) (Repl. 1, B9 cells): 5.52
- probe 1426260_a_at response, Ugt1a1 /// Ugt1a10 /// Ugt1a2 /// Ugt1a5 /// Ugt1a6a /// Ugt1a6b /// Ugt1aTc /// Ugt1a9 (UDP glucuronosyltransferase 1 family) (Repl. 1, B9 cells): 0.39

Source: patent US10421761B2, “Compounds for kinase modulation, and indications therefor” (Plexxikon Inc., priority 2013, dated 2019)
